Assay results as given in ChEMBL document CHEMBL4334492, “Nectriatide, a Potentiator of Amphotericin B Activity from Nectriaceae sp. BF-0114” (J Nat Prod, 2019).
Values belong to the compound of their own block, whether it stands above or below them. Active and inactive are the calls of the source. No cut-off for these calls is given here. Non-standard residues stand in square brackets, D forms with d. Residues, ends and D or L forms follow the SMILES beside them. *: point of attachment. NMeY = CN[C@@H](Cc1ccc(O)cc1)C(=O)O; 2Abz = Nc1ccccc1C(=O)O; tBu = CC(C)(C)*

How the values were obtained:
[1] = system: Candida albicans; experiment: Potentiation of amphotericin-induced antifungal activity against Candida albicans ATCC 90029 assessed as fold reduction in amphotericin MIC at 32 ug/ml after 24 hrs by broth microdilution method relative to amphotericin MIC alone; assay type: functional
[2] = system: Candida albicans; experiment: Potentiation of amphotericin-induced antifungal activity against Candida albicans ATCC 90029 assessed as amphotericin MIC at 32 ug/ml after 24 hrs by broth microdilution method (reference value: 0.5 ug/ml); assay type: functional; conditions: ATCC 90029, 24 h
[3] = system: Rhizopus arrhizus; experiment: Potentiation of amphotericin-induced antifungal activity against Rhizopus oryzae NBRC4705 assessed as fold reduction in amphotericin MIC at 16 ug/ml after 24 hrs by broth microdilution assay relative to amphotericin MIC alone; assay type: functional
[4] = system: Candida albicans; experiment: Potentiation of amphotericin-induced antifungal activity against Candida albicans ATCC 90029 assessed as fold reduction in amphotericin MIC at 16 ug/ml after 24 hrs by broth microdilution method relative to amphotericin MIC alone; assay type: functional
[5] = system: Saccharomyces cerevisiae; experiment: Potentiation of amphotericin-induced antifungal activity against Saccharomyces cerevisiae S288c assessed as fold reduction in amphotericin MIC at 16 ug/ml after 24 hrs by broth microdilution assay relative to amphotericin MIC alone; assay type: functional
[6] = system: Rhizopus arrhizus; experiment: Potentiation of amphotericin-induced antifungal activity against Rhizopus oryzae NBRC4705 assessed as amphotericin MIC at 32 ug/ml after 24 hrs by broth microdilution assay (reference value: 1 ug/ml); assay type: functional; conditions: NBRC4705, 24 h
[7] = system: Rhizopus arrhizus; experiment: Potentiation of amphotericin-induced antifungal activity against Rhizopus oryzae NBRC4705 assessed as amphotericin MIC at 4 ug/ml after 24 hrs by broth microdilution assay (reference value: 1 ug/ml); assay type: functional; conditions: NBRC4705, 24 h
[8] = system: Candida albicans; experiment: Potentiation of amphotericin-induced antifungal activity against Candida albicans ATCC 90029 assessed as amphotericin MIC at 8 ug/ml after 24 hrs by broth microdilution method (reference value: 0.5 ug/ml); assay type: functional; conditions: ATCC 90029, 24 h
[9] = system: Saccharomyces cerevisiae; experiment: Potentiation of amphotericin-induced antifungal activity against Saccharomyces cerevisiae S288c assessed as amphotericin MIC at 4 ug/ml after 24 hrs by broth microdilution assay (reference value: 0.5 ug/ml); assay type: functional
[10] = system: Candida albicans; experiment: Potentiation of miconazole-induced antifungal activity against Candida albicans ATCC 90029 at 64 ug/ml after 24 hrs by broth microdilution assay; assay type: functional, organism-based
[11] = system: Candida albicans; experiment: Potentiation of amphotericin-induced antifungal activity against Candida albicans ATCC 90029 assessed as amphotericin MIC at 16 ug/ml after 24 hrs by broth microdilution method (reference value: 0.5 ug/ml); assay type: functional; conditions: ATCC 90029, 24 h
[12] = system: Rhizopus arrhizus; experiment: Potentiation of amphotericin-induced antifungal activity against Rhizopus oryzae NBRC4705 assessed as fold reduction in amphotericin MIC at 32 ug/ml after 24 hrs by broth microdilution assay relative to amphotericin MIC alone; assay type: functional
[13] = system: HaCaT; experiment: Cytotoxicity against human HaCaT cells assessed as reduction in cell viability at 128 ug/ml after 24 hrs by MTT assay; assay type: cell-based
[14] = system: Saccharomyces cerevisiae; experiment: Potentiation of amphotericin-induced antifungal activity against Saccharomyces cerevisiae S288c assessed as amphotericin MIC after 24 hrs by broth microdilution assay (reference value: 0.5 ug/ml); assay type: functional, organism-based
[15] = system: Saccharomyces cerevisiae; experiment: Potentiation of amphotericin-induced antifungal activity against Saccharomyces cerevisiae S288c assessed as fold reduction in amphotericin MIC at 32 ug/ml after 24 hrs by broth microdilution assay relative to amphotericin MIC alone; assay type: functional
[16] = system: Rhizopus arrhizus; experiment: Potentiation of amphotericin-induced antifungal activity against Rhizopus oryzae NBRC4705 assessed as fold reduction in amphotericin MIC at 4 ug/ml after 24 hrs by broth microdilution assay relative to amphotericin MIC alone; assay type: functional
[17] = system: Candida albicans; experiment: Potentiation of micafungin-induced antifungal activity against Candida albicans ATCC 90029 at 64 ug/ml after 24 hrs by broth microdilution assay; assay type: functional, organism-based
[18] = system: Saccharomyces cerevisiae; experiment: Potentiation of amphotericin-induced antifungal activity against Saccharomyces cerevisiae S288c assessed as amphotericin MIC at 16 ug/ml after 24 hrs by broth microdilution assay (reference value: 0.5 ug/ml); assay type: functional
[19] = system: Saccharomyces cerevisiae; experiment: Potentiation of amphotericin-induced antifungal activity against Saccharomyces cerevisiae S288c assessed as amphotericin MIC at 8 ug/ml after 24 hrs by broth microdilution assay (reference value: 0.5 ug/ml); assay type: functional
[20] = system: Saccharomyces cerevisiae; experiment: Potentiation of amphotericin-induced antifungal activity against Saccharomyces cerevisiae S288c assessed as fold reduction in amphotericin MIC at 2 ug/ml after 24 hrs by broth microdilution assay relative to amphotericin MIC alone; assay type: functional
[21] = system: Saccharomyces cerevisiae; experiment: Potentiation of amphotericin-induced antifungal activity against Saccharomyces cerevisiae S288c assessed as fold reduction in amphotericin MIC at 4 ug/ml after 24 hrs by broth microdilution assay relative to amphotericin MIC alone; assay type: functional
[22] = system: Saccharomyces cerevisiae; experiment: Potentiation of amphotericin-induced antifungal activity against Saccharomyces cerevisiae S288c assessed as amphotericin MIC at 32 ug/ml after 24 hrs by broth microdilution assay (reference value: 0.5 ug/ml); assay type: functional
[23] = system: Rhizopus arrhizus; experiment: Potentiation of amphotericin-induced antifungal activity against Rhizopus oryzae NBRC4705 assessed as amphotericin MIC at 2 ug/ml after 24 hrs by broth microdilution assay (reference value: 1 ug/ml); assay type: functional; conditions: NBRC4705, 24 h
[24] = system: Rhizopus arrhizus; experiment: Potentiation of amphotericin-induced antifungal activity against Rhizopus oryzae NBRC4705 assessed as fold reduction in amphotericin MIC at 2 ug/ml after 24 hrs by broth microdilution assay relative to amphotericin MIC alone; assay type: functional
[25] = system: Saccharomyces cerevisiae; experiment: Potentiation of amphotericin-induced antifungal activity against Saccharomyces cerevisiae S288c assessed as amphotericin MIC at 2 ug/ml after 24 hrs by broth microdilution assay (reference value: 0.5 ug/ml); assay type: functional
[26] = system: Rhizopus arrhizus; experiment: Potentiation of amphotericin-induced antifungal activity against Rhizopus oryzae NBRC4705 assessed as amphotericin MIC after 24 hrs by broth microdilution assay (reference value: 1 ug/ml); assay type: functional, organism-based
[27] = system: Jurkat; experiment: Cytotoxicity against human Jurkat cells at 128 ug/ml after 24 hrs by MTT assay; assay type: cell-based
[28] = system: HEK293; experiment: Cytotoxicity against human HEK293 cells assessed as reduction in cell viability after 24 hrs by MTT assay; assay type: cell-based; conditions: HEK293, 24 h
[29] = system: Saccharomyces cerevisiae; experiment: Potentiation of amphotericin-induced antifungal activity against Saccharomyces cerevisiae S288c assessed as fold reduction in amphotericin MIC at 8 ug/ml after 24 hrs by broth microdilution assay relative to amphotericin MIC alone; assay type: functional
[30] = system: HEK293; experiment: Cytotoxicity against human HEK293 cells at 128 ug/ml after 24 hrs by MTT assay; assay type: cell-based; conditions: hek293, 24 h
[31] = system: Rhizopus arrhizus; experiment: Potentiation of amphotericin-induced antifungal activity against Rhizopus oryzae NBRC4705 assessed as fold reduction in amphotericin MIC at 8 ug/ml after 24 hrs by broth microdilution assay relative to amphotericin MIC alone; assay type: functional
[32] = system: Aspergillus niger; experiment: Potentiation of amphotericin-induced antifungal activity against Aspergillus niger ATCC 6275 assessed as fold reduction in amphotericin MIC at 32 ug/ml after 48 hrs by broth microdilution method relative to amphotericin MIC alone; assay type: functional
[33] = system: HCT-116; experiment: Cytotoxicity against human HCT116 cells at 128 ug/ml after 24 hrs by MTT assay; assay type: cell-based; conditions: hct-116, 24 h
[34] = system: Rhizopus arrhizus; experiment: Potentiation of amphotericin-induced antifungal activity against Rhizopus oryzae NBRC4705 assessed as amphotericin MIC at 8 ug/ml after 24 hrs by broth microdilution assay (reference value: 1 ug/ml); assay type: functional; conditions: NBRC4705, 24 h
[35] = system: Aspergillus niger; experiment: Potentiation of amphotericin-induced antifungal activity against Aspergillus niger ATCC 6275 assessed as amphotericin MIC at 32 ug/ml after 48 hrs by broth microdilution method (reference value: 0.25 ug/ml); assay type: functional; conditions: ATCC 6275, 48 h
[36] = system: Candida albicans; experiment: Potentiation of amphotericin-induced antifungal activity against Candida albicans ATCC 90029 assessed as fold reduction in amphotericin MIC at 8 ug/ml after 24 hrs by broth microdilution method relative to amphotericin MIC alone; assay type: functional
[37] = system: Rhizopus arrhizus; experiment: Potentiation of amphotericin-induced antifungal activity against Rhizopus oryzae NBRC4705 assessed as amphotericin MIC at 16 ug/ml after 24 hrs by broth microdilution assay (reference value: 1 ug/ml); assay type: functional; conditions: NBRC4705, 24 h
[38] = system: Candida albicans; experiment: Potentiation of amphotericin-induced antifungal activity against Candida albicans ATCC 90029 assessed as amphotericin MIC at 4 ug/ml after 24 hrs by broth microdilution method (reference value: 0.5 ug/ml); assay type: functional; conditions: ATCC 90029, 24 h
[39] = system: Candida albicans; experiment: Potentiation of amphotericin-induced antifungal activity against Candida albicans ATCC 90029 assessed as fold reduction in amphotericin MIC at 2 ug/ml after 24 hrs by broth microdilution method relative to amphotericin MIC alone; assay type: functional
[40] = system: Candida albicans; experiment: Potentiation of amphotericin-induced antifungal activity against Candida albicans ATCC 90029 assessed as amphotericin MIC at 2 ug/ml after 24 hrs by broth microdilution method (reference value: 0.5 ug/ml); assay type: functional; conditions: ATCC 90029, 24 h
[41] = system: Candida albicans; experiment: Potentiation of amphotericin-induced antifungal activity against Candida albicans ATCC 90029 assessed as fold reduction in amphotericin MIC at 4 ug/ml after 24 hrs by broth microdilution method relative to amphotericin MIC alone; assay type: functional

MIC [2]: 0.25 µg/mL
Structure (SMILES): CN[C@@H](Cc1ccc(OC(C)(C)C)cc1)C(=O)Nc1ccccc1C(=O)N[C@@H](C)C(=O)O
Ratio [1]: 2

MIC [6]: 0.25 µg/mL | MIC [7]: 0.5 µg/mL | MIC [8]: 0.13 µg/mL | MIC [9]: 0.13 µg/mL | MIC [11]: 0.063 µg/mL | MIC [18]: 0.031 µg/mL | MIC [19]: 0.063 µg/mL | MIC [22]: 0.031 µg/mL | MIC [23]: 0.5 µg/mL | MIC [25]: 0.13 µg/mL | MIC [2]: 0.031 µg/mL | MIC [34]: 0.25 µg/mL | MIC [35]: 0.25 µg/mL | MIC [37]: 0.25 µg/mL
Structure (SMILES): CC(C)[C@@H]1NC(=O)[C@H](C)NC(=O)c2ccccc2NC(=O)[C@H](Cc2ccc(O)cc2)N(C)C1=O
Ratio [3]: 4 | Ratio [4]: 8 | Ratio [5]: 16 | Activity [10]: inactive | Ratio [12]: 4 | Activity [13]: Non-Toxic | Activity [14]: Dose-dependent effect | Ratio [15]: 16 | Ratio [16]: 2 | Activity [17]: inactive | Ratio [20]: 4 | Ratio [21]: 4 | Ratio [24]: 2 | Activity [26]: Dose-dependent effect | Activity [27]: Non-Toxic | IC50 [28]: > 128 µg/mL | Ratio [29]: 8 | Activity [30]: Non-Toxic | Ratio [31]: 4 | Ratio [1]: 16 | Ratio [32]: 1 | Activity [33]: Non-Toxic | Ratio [36]: 4

MIC [8]: 0.13 µg/mL | MIC [11]: 0.063 µg/mL | MIC [2]: 0.031 µg/mL
Structure (SMILES): CN[C@@H](Cc1ccc(OC(C)(C)C)cc1)C(=O)Nc1ccccc1C(=O)N[C@@H](C)C(=O)N[C@H](C(=O)O)C(C)C (H-[NMeY](tBu)[2Abz]AV-OH)
Ratio [4]: 8 | Ratio [1]: 16 | Ratio [36]: 4

MIC [8]: 0.25 µg/mL | MIC [11]: 0.13 µg/mL | MIC [2]: 0.13 µg/mL
Structure (SMILES): CC(C)[C@H](NC(=O)[C@H](C)NC(=O)c1ccccc1N)C(=O)N(C)[C@@H](Cc1ccc(OC(C)(C)C)cc1)C(=O)O (H-[2Abz]AV[NMeY](tBu)-OH)
Ratio [4]: 4 | Ratio [1]: 4 | Ratio [36]: 2

Structure (SMILES): Nc1ccccc1C(=O)O [ANTHRANILIC ACID]
Ratio [1]: 1 | MIC [2]: 0.5 µg/mL

MIC [38]: 0.13 µg/mL | MIC [8]: 0.031 µg/mL | MIC [11]: 0.031 µg/mL | MIC [40]: 0.25 µg/mL | MIC [2]: 0.031 µg/mL
Structure (SMILES): CC(C)[C@H](NC(=O)[C@H](C)N)C(=O)N(C)[C@@H](Cc1ccc(OC(C)(C)C)cc1)C(=O)Nc1ccccc1C(=O)O (H-AV[NMeY](tBu)[2Abz]-OH)
Ratio [4]: 16 | Ratio [39]: 2 | Ratio [41]: 4 | Ratio [1]: 16
